The values below are quoted from earlier work in publication PMC9851200, “Multiparameter phenotypic screening for endogenous TFEB and TFE3 translocation identifies novel chemical series modulating lysosome function” (Autophagy, 2022).

What all share (parameters): method as in original PKIS2 published data
Data set [1] has as its target T1, kinases (KINOMEscan panel) (Homo sapiens, UniProt O14920).
T1 sequence (O14920 1-756): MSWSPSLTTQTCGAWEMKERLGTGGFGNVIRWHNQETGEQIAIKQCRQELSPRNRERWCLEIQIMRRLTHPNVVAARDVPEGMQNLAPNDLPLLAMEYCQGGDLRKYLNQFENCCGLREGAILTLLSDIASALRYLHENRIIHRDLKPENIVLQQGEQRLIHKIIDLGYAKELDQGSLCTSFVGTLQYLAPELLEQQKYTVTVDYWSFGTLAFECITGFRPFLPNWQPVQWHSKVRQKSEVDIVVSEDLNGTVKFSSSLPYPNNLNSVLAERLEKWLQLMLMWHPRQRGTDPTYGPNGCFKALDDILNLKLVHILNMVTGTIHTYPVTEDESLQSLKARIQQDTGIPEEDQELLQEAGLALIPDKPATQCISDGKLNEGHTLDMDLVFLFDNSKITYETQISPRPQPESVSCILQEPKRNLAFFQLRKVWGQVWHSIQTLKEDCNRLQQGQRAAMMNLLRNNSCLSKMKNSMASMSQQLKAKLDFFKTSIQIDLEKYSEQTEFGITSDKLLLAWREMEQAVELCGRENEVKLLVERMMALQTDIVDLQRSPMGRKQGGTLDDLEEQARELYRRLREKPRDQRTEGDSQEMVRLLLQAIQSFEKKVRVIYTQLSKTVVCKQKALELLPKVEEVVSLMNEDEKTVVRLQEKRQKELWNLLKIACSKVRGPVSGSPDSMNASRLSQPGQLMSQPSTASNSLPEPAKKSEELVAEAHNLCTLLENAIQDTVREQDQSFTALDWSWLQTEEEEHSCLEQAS
The note with it: cited from earlier work.

Data set [2] deals with kinases (KINOMEscan panel) (Homo sapiens, UniProt P57059). The following applies: kinase SIK1; Published KINOMEscan; ref original PKIS2 published data; cited from earlier work.
Data set [3] has as its target kinases (KINOMEscan panel) (Homo sapiens, UniProt Q00535). The note with it: Published KINOMEscan; ref original PKIS2 published data; cited from earlier work.
Data set [4] deals with T2, kinases (KINOMEscan panel) (Homo sapiens, UniProt Q8TDC3).
T2 sequence (Q8TDC3 1-778): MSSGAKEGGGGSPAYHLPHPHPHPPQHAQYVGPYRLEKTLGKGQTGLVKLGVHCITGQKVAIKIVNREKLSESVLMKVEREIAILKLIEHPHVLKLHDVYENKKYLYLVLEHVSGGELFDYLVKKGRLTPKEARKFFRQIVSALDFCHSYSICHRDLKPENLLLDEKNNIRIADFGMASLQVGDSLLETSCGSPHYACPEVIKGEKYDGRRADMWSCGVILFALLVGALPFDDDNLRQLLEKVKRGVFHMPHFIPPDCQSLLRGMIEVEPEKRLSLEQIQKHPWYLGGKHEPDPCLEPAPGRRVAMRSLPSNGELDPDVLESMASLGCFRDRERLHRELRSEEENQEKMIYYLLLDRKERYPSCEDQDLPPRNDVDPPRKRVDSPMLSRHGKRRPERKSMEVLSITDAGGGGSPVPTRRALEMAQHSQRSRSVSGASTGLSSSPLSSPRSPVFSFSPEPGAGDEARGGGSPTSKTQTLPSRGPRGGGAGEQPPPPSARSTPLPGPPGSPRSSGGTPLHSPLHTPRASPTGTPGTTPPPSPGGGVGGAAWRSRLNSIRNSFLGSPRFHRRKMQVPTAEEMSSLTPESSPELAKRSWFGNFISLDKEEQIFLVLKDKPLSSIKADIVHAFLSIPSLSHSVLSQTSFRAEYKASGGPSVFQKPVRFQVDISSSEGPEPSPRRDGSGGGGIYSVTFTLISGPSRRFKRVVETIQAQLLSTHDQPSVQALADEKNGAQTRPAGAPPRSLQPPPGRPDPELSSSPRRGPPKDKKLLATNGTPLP
The note with it: BRSK1; Published KINOMEscan; ref original PKIS2 published data; cited from earlier work.

Data set [5] deals with T3, kinases (KINOMEscan panel) (Homo sapiens, UniProt Q9UQ88).
T3 sequence (Q9UQ88 1-783): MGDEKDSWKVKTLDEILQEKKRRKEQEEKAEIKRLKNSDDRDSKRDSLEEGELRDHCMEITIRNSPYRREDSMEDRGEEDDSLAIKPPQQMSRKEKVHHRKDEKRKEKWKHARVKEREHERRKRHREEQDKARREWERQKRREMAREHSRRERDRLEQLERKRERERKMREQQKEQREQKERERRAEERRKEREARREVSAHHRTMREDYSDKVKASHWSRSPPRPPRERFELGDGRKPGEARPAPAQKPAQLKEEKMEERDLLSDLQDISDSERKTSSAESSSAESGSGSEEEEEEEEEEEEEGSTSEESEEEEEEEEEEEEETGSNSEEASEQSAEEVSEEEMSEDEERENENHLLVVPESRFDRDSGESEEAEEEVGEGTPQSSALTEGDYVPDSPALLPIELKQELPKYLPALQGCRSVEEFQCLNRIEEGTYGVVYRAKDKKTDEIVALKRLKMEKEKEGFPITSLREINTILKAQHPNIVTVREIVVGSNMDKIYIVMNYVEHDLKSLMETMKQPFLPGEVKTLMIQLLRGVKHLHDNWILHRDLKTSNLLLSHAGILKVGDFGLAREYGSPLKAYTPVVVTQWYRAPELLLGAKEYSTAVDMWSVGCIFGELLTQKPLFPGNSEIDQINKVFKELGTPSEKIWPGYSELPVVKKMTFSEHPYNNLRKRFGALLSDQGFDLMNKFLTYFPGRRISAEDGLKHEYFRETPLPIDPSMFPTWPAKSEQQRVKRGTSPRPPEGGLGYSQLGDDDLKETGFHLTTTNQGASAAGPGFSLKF
The note with it: Published KINOMEscan; ref original PKIS2 published data; cited from earlier work.

Data set [6] addresses kinases (KINOMEscan panel) (Homo sapiens, UniProt Q9Y2H9). The following applies: MAST1; Published KINOMEscan; ref original PKIS2 published data; cited from earlier work.

Chain of kinases (KINOMEscan panel) (Homo sapiens, UniProt P57059) (P57059 whole entry): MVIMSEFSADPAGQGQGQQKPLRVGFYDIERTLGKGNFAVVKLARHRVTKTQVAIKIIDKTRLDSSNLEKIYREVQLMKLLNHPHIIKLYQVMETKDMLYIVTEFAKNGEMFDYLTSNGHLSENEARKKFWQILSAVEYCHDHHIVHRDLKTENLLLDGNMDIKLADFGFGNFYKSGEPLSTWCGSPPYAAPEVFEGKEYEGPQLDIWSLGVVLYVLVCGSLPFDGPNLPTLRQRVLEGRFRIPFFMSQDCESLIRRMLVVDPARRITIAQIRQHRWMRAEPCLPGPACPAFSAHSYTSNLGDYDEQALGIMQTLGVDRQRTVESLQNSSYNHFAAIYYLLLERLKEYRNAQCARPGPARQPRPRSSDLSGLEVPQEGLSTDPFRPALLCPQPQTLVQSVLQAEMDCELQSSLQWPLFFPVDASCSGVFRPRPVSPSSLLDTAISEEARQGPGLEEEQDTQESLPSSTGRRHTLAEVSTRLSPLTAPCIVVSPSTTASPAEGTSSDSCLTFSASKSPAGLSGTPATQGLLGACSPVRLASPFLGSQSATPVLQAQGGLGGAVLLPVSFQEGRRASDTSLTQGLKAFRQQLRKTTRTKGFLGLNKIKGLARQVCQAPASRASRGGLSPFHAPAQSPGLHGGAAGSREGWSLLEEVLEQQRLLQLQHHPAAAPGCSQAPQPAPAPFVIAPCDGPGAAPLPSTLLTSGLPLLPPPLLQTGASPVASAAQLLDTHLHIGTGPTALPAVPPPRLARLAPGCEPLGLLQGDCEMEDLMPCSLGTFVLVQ
Chain of kinases (KINOMEscan panel) (Homo sapiens, UniProt Q9Y2H9) (Q9Y2H9 whole entry): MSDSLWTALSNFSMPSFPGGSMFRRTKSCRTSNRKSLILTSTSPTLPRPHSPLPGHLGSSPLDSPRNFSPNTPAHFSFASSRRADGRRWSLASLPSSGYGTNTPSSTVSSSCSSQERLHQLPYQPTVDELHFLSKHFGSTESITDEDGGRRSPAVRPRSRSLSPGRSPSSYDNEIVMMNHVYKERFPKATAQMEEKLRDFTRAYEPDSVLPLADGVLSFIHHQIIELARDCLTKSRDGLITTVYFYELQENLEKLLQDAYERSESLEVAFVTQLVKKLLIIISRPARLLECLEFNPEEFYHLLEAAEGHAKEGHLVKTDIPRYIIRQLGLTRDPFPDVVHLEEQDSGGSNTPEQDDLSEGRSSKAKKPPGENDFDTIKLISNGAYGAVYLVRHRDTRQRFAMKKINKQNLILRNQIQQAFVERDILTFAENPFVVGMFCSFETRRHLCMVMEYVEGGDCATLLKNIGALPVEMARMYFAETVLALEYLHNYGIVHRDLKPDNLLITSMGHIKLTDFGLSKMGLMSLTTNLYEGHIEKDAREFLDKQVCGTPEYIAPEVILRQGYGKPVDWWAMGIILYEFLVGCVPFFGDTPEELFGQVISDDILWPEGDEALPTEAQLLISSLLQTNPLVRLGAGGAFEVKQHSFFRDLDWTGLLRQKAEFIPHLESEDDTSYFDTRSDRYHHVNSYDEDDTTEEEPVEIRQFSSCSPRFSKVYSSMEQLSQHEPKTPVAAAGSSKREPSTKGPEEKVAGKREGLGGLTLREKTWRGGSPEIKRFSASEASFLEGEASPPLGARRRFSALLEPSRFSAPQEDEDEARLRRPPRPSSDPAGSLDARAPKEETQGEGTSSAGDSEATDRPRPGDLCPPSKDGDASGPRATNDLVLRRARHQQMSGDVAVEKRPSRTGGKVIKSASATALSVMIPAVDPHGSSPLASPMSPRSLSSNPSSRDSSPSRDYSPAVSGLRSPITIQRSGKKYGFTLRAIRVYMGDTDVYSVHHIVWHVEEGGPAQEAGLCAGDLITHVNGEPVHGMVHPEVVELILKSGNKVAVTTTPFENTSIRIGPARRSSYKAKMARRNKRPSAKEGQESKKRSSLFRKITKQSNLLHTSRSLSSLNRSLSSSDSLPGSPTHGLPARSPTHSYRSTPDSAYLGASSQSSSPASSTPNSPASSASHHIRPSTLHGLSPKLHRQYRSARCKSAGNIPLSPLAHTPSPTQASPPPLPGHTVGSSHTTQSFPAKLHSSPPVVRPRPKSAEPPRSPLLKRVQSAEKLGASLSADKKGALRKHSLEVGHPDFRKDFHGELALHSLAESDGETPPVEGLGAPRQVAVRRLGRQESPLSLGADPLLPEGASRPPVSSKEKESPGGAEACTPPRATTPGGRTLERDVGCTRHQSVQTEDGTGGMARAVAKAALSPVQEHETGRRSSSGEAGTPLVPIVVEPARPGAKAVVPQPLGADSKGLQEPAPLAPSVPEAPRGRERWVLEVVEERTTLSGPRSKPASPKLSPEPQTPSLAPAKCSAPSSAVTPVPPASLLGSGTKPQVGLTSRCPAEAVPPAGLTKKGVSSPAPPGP
Chain of kinases (KINOMEscan panel) (Homo sapiens, UniProt Q00535) (Q00535 whole entry): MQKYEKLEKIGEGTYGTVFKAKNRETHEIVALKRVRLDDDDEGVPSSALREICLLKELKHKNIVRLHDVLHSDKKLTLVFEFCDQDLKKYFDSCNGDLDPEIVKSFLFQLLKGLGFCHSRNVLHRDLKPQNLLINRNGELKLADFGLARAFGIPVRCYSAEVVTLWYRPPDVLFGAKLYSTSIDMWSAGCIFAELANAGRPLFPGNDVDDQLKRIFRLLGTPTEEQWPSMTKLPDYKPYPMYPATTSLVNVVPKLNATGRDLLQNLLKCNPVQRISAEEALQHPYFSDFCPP

`Cc1cccc(-c2nc(Nc3ccncc3)c3ccccc3n2)n1` [NK215]: the “KINOMEscan IKBKB/IKK-beta” value in data set [1] was 0. Besides, the “KINOMEscan SIK1” value in data set [2] was 4. The “KINOMEscan CDK5” value in data set [3] is on record as 0. In addition, in data set [4], the “KINOMEscan BRSK1” value was 0. Besides, the “KINOMEscan CDK11A” value in data set [5] is 0. Moreover, in data set [6], the “KINOMEscan MAST1” value was 50.
